{"source": "paper PMC11110755", "about": "“Structure-based virtual screening of unbiased and RNA-focused libraries to identify new ligands for the HCV IRES model system” (RSC Medicinal Chemistry, 2024)", "key": {"HCV IRES subdomain IIa [1]": {"test_system": "HCV IRES subdomain IIa", "experiment": "FRET assay monitoring ligand-induced conformational change of Cy3/Cy5-labelled HCV IRES subdomain IIa", "assay_type": "biochemical, hepatitis C virus", "settings": "for EC50: 100 nM Cy3/Cy5-labelled RNA, 10 mM HEPES pH 7.0, 2 mM MgCl2, 2% DMSO, ≥ = lower limit; for FRET-signal change / conformational change of HCV IRES subdomain IIa, in words: pre-screening 1000, 100, 10 and 0.001 μM", "protocol": "For the FRET assay, a two stranded HCV IRES subdomain IIa carrying a 5′-Cy3-label on one and 5′-Cy5-label on the other strand (Cy3-[…], Cy5-[…], Biomers.net GmbH) was used as described previously.[22,53] All samples containing labelled RNA were treated under light protection. FRET experiments were performed on a Tecan Spark 10 M plate reader (excitation/emission: 480/670 nm) using black half area 96 well microplates (Greiner Bio-One), based on a protocol by Zhou et al.[53] The 5′-Cy3- and 5′-Cy5-labelled single strands were annealed by heating to 75 °C in FRET buffer (10 mM HEPES pH 7.0, 2 mM MgCl2) and cooled down to room temperature for at least 20 min. The 5′-Cy3/Cy5-labelled RNA was diluted to 100 nM in FRET buffer and supplemented with compounds 8–28 in appropriate concentrations. Compounds 4 and 5 were used as positive controls. For the initial screening, compounds were added in final concentrations of 1000, 100, 10 and 0.001 μM (Fig. S4 ^†). If a concentration dependent reduction of the FRET signal (Cy5-emission) was observed, EC50-values were determined using ligand concentrations from 1 mM to 100 nM in 3.16-fold (semi-logarithmic) dilution series. For those compounds, the Cy3 emission was measured at 535 nm to confirm a conformational change dependent reduction in the Cy5 emission signal via Cy3 emission increase (Fig. S7 ^†). For each experiment, one DMSO negative control was carried out. The final DMSO concentration was always 2%. Excitation and emission spectra were recorded for the Cy3/Cy5-labelled RNA (100 nM) in FRET buffer to confirm excitation (Cy3) and emission (Cy5) wavelength as well as for each compound (1 μM) in FRET buffer to exclude any interference with the cyanine dyes. All measurements were performed at least as triplicates for screening and EC50-determination.\n(§1) FRET experiments were analyzed using GraphPad Prism (version 8.0.1., GraphPad Software, Boston, Massachusetts USA, https://www.graphpad.com)."}, "HCV IRES subdomain IIa [2]": {"target": "HCV IRES subdomain IIa", "assay_type": "binding, hepatitis C virus", "settings": "for Kd: 30 nM Cy5-labelled RNA, 10 mM HEPES pH 7.0, 2 mM MgCl2, 2% DMSO, ≥ = no saturation, n.b. no binding observed, read-out: MST KD; for binding to HCV IRES subdomain IIa (MST-shift), in words: pre-screening 1000 (or 316), 100, 10 and 0.001 μM", "protocol": "For the MST assay, the same sequence of the two stranded HCV IRES subdomain IIa as for the FRET assay was used. One strand was 5′-Cy5-labelled and the other strand was unmodified ([…], Cy5-[…], Biomers.net GmbH). All samples containing labelled RNA were treated under light protection. MST experiments were performed on a Monolith NT.115 from NanoTemper Technologies using standard uncoated capillaries. The strands were annealed by heating to 75 °C in MST buffer (10 mM HEPES pH 7.0, 2 mM MgCl2) and cooled down to room temperature for at least 20 min. The 5′-Cy5-labelled HCV IRES domain IIa RNA was diluted to 30 nM in MST buffer and supplemented with compounds 8–25 in appropriate concentrations. Compounds 4 and 5 were used as positive controls. For the initial screening, compounds were added to final concentrations of 1000 (or 316 if limited by solubility), 100, 10 and 0.001 μM (Fig. S5 ^†). If a concentration-dependent shift of thermophoresis was observed, KD-values were determined using concentrations ranging from 1 mM (if permitted by solubility, otherwise starting from 316 or 100 μM) to 0.01 μM in a 3.16-fold (semi-logarithmic) dilution series. For each experiment, one DMSO negative control was carried out. Final DMSO concentration was always 2%.\n(§2) Off-target counter screens by MST were performed as described previously.[31,84] Briefly, the 5′-Cy5-labelled Tte preQ1-Riboswitch aptamer domain (Biomers.net GmbH) was heated to 75 °C for 5 min, cooled down to room temperature for at least 20 min and then diluted to 20 nM in MST buffer (50 mM Tris-HCl pH 7.5, 100 mM KCl, 25 mM MgCl2) and supplemented with compounds 4, 5, 8–13, 18, 21, 22 and 26 to final concentrations of 1000, 100, 10 and 0.001 μM. PreQ1 was used as a positive control. The 5′-Cy5-labelled B. angulatum SAM VI-Riboswitch aptamer domain (Eurofins Genomics GmbH) was heated to 75 °C for 5 min, cooled down to room temperature for at least 20 min and then diluted to 20 nM in MST buffer (50 mM Tris-HCl pH 7.5, 100 mM KCl, 25 mM MgCl2) and supplemented with compounds 5, 9 and 28 to final concentrations of 1000, 100, 10 and 0.001 μM. SAM was used as a positive control. For each experiment, one DMSO negative control was carried out. The final DMSO concentration was 2%. All measurements were performed at least as duplicates for pre-screening and triplicates for KD-determination. MST measurements were analyzed from signals after 18 s laser on-time using the MO.Affinity Analysis software (version 2.3) and exported for statistical analysis and plotting in GraphPad Prism (version 8.0.1., GraphPad Software, Boston, Massachusetts USA, https://www.graphpad.com)."}, "[3]": {"test_system": "Tte preQ1-Riboswitch aptamer domain", "experiment": "MST off-target counter screen, preQ1-riboswitch aptamer domain", "assay_type": "binding, Thermoanaerobacter tengcongensis", "settings": "for preQ1-riboswitch binding / selectivity (MST-shift), in words: 1000, 100, 10 and 0.001 μM", "protocol": "as §2"}, "[4]": {"target": "SAM VI-Riboswitch aptamer domain", "experiment": "MST off-target counter screen, SAM VI-riboswitch aptamer domain", "assay_type": "binding, B. angulatum", "protocol": "as §2"}, "HCV IRES": {"test_system": "HCV IRES", "set-up": "method as in PMID 15380215", "settings": "previously reported, Fig. 1; read-out: IC50 (Luciferase reporter gene assay); cited from earlier work"}, "HCV IRES subdomain IIa [5]": {"test_system": "HCV IRES subdomain IIa", "set-up": "method as in PMID 25349403", "settings": "previous study, cited from earlier work"}, "HCV IRES subdomain IIa [6]": {"target": "HCV IRES subdomain IIa", "set-up": "method as in PMID 16279767", "settings": "previously reported; read-out: KD (MS assay); cited from earlier work"}, "HCV IRES subdomain IIa [7]": {"test_system": "HCV IRES subdomain IIa", "set-up": "method as in PMID 16279767, PMID 24930829, PMID 27775338", "settings": "previously reported, Fig. 1; read-out: EC50 (FRET assay); cited from earlier work"}, "cellular replicon": {"test_system": "cellular replicon", "set-up": "method as in PMID 16279767", "settings": "cited from earlier work"}, "[8]": {"test_system": "HCV IRES subdomain IIa in presence of total RNA from yeast", "experiment": "Selectivity FRET assay in presence of competing total RNA from yeast", "assay_type": "biochemical, hepatitis C virus", "settings": "1:5 m/m HCV IRES : total RNA from yeast", "protocol": "For the HCV IRES-binding compounds (4, 5, 8–13, 8a–8c), a selectivity FRET assay in presence of total RNA from yeast (Roche) was performed. The ratio of the FRET HCV IRES subdomain IIa construct and the total RNA was set to 1 : 5 m/m. The preparation of the labelled RNA and the compounds was the same as in the binding assay. The yeast RNA was diluted to 7.88 mg L^−1 and supplemented with 100 nM HCV IRES and appropriate concentrations of the compounds (3.16-fold dilution series) in FRET buffer (Fig. S10 ^†). For each compound, triplicate measurements were performed. For each experiment, one DMSO negative control was carried out. The final DMSO concentration was always 2%.\nas §1"}}, "note": "“And” between values parts separate entries of the source, which are not always exact repeats. Equal entries are not always repeated. “Also recorded” adds a separate entry of the source. Where two headings read alike, the source gives them in different places.", "data": [{"smiles": "CCOc1ccc2c(C)nc(NC(=N)N)nc2c1", "note": "[Compound 8a]", "values": [{"measurement": "EC50", "setting": "HCV IRES subdomain IIa [1]", "value": "88 ± 12", "unit": "µM"}, {"measurement": "Kd", "setting": "HCV IRES subdomain IIa [2]", "value": "189 ± 20", "unit": "µM"}]}, {"smiles": "N=C(N)NC(=O)c1nc(Cl)c(N)nc1N", "note": "[Compound 26, amiloride, reference compound]", "values": [{"measurement": "EC50", "setting": "HCV IRES subdomain IIa [1]", "value": "≥ 500", "unit": "µM"}, {"measurement": "Kd", "setting": "HCV IRES subdomain IIa [2]", "value": "≥ 100", "unit": "µM"}, {"measurement": "binding to HCV IRES subdomain IIa (MST-shift), in words", "setting": "HCV IRES subdomain IIa [2]", "value": "some weak binding"}, {"measurement": "preQ1-riboswitch binding / selectivity (MST-shift), in words", "setting": "[3]", "value": "selectivity over the preQ1-riboswitch"}]}, {"smiles": "C[S+](CC[C@H](N)C(=O)[O-])C[C@H]1O[C@@H](n2cnc3c(N)ncnc32)[C@H](O)[C@@H]1O", "note": "(some centres unmarked) [SAM, reference compound]", "values": [{"measurement": "Kd", "setting": "[4]; positive control, read-out: KD of positive control binding to SAM-VI-riboswitch (MST)", "value": 0.772, "unit": "µM"}]}, {"smiles": "Cc1nc(/N=C(\\N)NCCc2ccccc2)nc(C)c1OCCCN(C)C", "note": "[Compound 2]", "values": [{"measurement": "IC50", "setting": "HCV IRES", "value": 2.1, "unit": "µM"}]}, {"smiles": "CCOc1ccc2c(C)nc(NC(=N)NC)nc2c1", "note": "[Compound 8]", "values": [{"measurement": "EC50", "setting": "HCV IRES subdomain IIa [1]", "value": "413 ± 97", "unit": "µM"}, {"measurement": "Kd", "setting": "HCV IRES subdomain IIa [2]", "value": "≥ 440", "unit": "µM"}]}, {"smiles": "Nc1nc2[nH]cnc2c(=O)[nH]1", "note": "[G]", "values": [{"measurement": "HCV IRES subdomain IIa binding, in words", "setting": "HCV IRES subdomain IIa [5]", "value": "weak binding behavior"}, {"measurement": "EC50", "setting": "HCV IRES subdomain IIa [5]; read-out: EC50 HCV IRES subdomain IIa binding", "value": 1050, "unit": "µM"}]}, {"smiles": "CN(C)CCCn1c(N)nc2ccc3c(c21)CC(CN(C)C)CO3", "note": "(centres unmarked) [Compound 5]", "values": [{"measurement": "EC50", "setting": "HCV IRES subdomain IIa [1]", "value": "4.9 ± 2.6", "unit": "µM"}, {"measurement": "Kd", "setting": "HCV IRES subdomain IIa [2]", "value": "5.2 ± 0.8", "unit": "µM"}, {"measurement": "preQ1-riboswitch binding / selectivity (MST-shift), in words", "setting": "[3]", "value": "Weak preQ1-riboswitch binding; also recorded: binding to the preQ1-riboswitch at very high concentrations"}, {"measurement": "SAM-VI-riboswitch binding (MST-shift), in words", "setting": "[4]; 1000, 100, 10 and 0.001 μM", "value": "no binding; also recorded: no MST shift"}, {"measurement": "Kd", "setting": "HCV IRES subdomain IIa [6]", "value": 0.86, "unit": "µM"}, {"measurement": "EC50", "setting": "HCV IRES subdomain IIa [7]", "value": 3.4, "unit": "µM"}, {"measurement": "antiviral activity in cellular replicon assay, in words", "setting": "cellular replicon", "value": "antiviral activity"}, {"measurement": "toxicity in cellular replicon assay, in words", "setting": "cellular replicon", "value": "minimal toxicity"}]}, {"smiles": "CN(C)CCCNc1ccc2nc(N)oc2c1", "note": "[Compound 6]", "values": [{"measurement": "EC50", "setting": "HCV IRES subdomain IIa [7]", "value": 25, "unit": "µM"}]}, {"smiles": "NC1=NC(c2ccccc2)n2c(nc3ccccc32)N1", "note": "(centres unmarked) [Compound 22]", "values": [{"measurement": "FRET-signal change / conformational change of HCV IRES subdomain IIa, in words", "setting": "HCV IRES subdomain IIa [1]", "value": "no large changes in FRET-signals; also recorded: no changes in the FRET-assay"}]}, {"smiles": "CN(C)C(=O)COC(=O)Cc1ccc(OC(=O)c2ccc(NC(=N)N)cc2)cc1", "note": "[Compound 27, Camostat, reference compound]", "values": [{"measurement": "FRET-signal change / conformational change of HCV IRES subdomain IIa, in words", "setting": "HCV IRES subdomain IIa [1]", "value": "no binding"}, {"measurement": "binding to HCV IRES subdomain IIa (MST-shift), in words", "setting": "HCV IRES subdomain IIa [2]", "value": "no binding"}]}, {"smiles": "CN(C)CCCn1c(N)nc2ccccc21", "note": "[Compound 4]", "values": [{"measurement": "EC50", "setting": "HCV IRES subdomain IIa [1]", "value": "78 ± 35", "unit": "µM"}, {"measurement": "FRET result in presence of competing total RNA, in words", "setting": "[8]", "value": "lower EC50-values"}, {"measurement": "Kd", "setting": "HCV IRES subdomain IIa [6]", "value": "100 µM and ≥ 100 µM"}, {"measurement": "EC50", "setting": "HCV IRES subdomain IIa [7]", "value": 50, "unit": "µM"}]}, {"smiles": "NCc1c[nH]c2nc(N)[nH]c(=O)c12", "note": "[preQ1]", "values": [{"measurement": "Kd", "setting": "[3]; positive control, read-out: KD of positive control binding to preQ1-riboswitch (MST)", "value": 0.012, "unit": "µM"}]}]}
